Three molecules from ChEMBL document CHEMBL4425141, “Design, Synthesis, and Identification of 4″α-Azidoethyl-cyclic ADP-Carbocyclic-ribose as a Highly Potent Analogue of Cyclic ADP-Ribose, a Ca(2+)-Mobilizing Second Messenger” (J Med Chem, 2016) can be followed below.

A word on the EC50: it is the midpoint of the concentration-response curve.

The nature of experiment [1]: (§1) Induction of calcium mobilization in sea urchin egg by fluorometry. The format is functional, Hemicentrotus pulcherrimus.
In experiment [2] the test system is Hemicentrotus pulcherrimus. The experiment is described as §1. The format is functional.

`Nc1c2ncn3c2nc[n+]1[C@@H]1C[C@H](COP(=O)([O-])OP(=O)(O)OC[C@H]2O[C@@H]3[C@H](O)[C@@H]2O)[C@@H](O)[C@H]1O`: the concentration for a half-maximal effect (EC50) in experiment [1] was found to be 54 nM.
Consider `Nc1c2ncn3c2nc[n+]1[C@@H]1O[C@H](COP(=O)([O-])OP(=O)(O)OC[C@H]2O[C@@H]3[C@H](O)[C@@H]2O)[C@@H](O)[C@H]1O`, for which the EC50 in experiment [1] was 213 nM. For the same molecule, the Activity entry in experiment [2] is “Dose-dependent effect”.
As to `[N-]=[N+]=NCC[C@]12COP(=O)(O)OP(=O)([O-])OC[C@H]3O[C@H]([C@H](O)[C@@H]3O)n3cnc4c(N)[n+](cnc43)[C@H](C1)[C@H](O)[C@@H]2O`, the concentration for a half-maximal effect (EC50) in experiment [1] worked out at 24 nM.
